Source: US5210193A, “Piperazine derivatives” (American Cyanamid Company, priority 1990, dated 1993)
Converted amounts (≈) assume the structure as drawn.

How the values were obtained:
Test in all cases: in vitro antibacterial MIC, agar plate dilution
Assay type in all cases: cell-based
[1] = system: Serratia marcescens MOR 84-41; details: Serratia marcescens, MOR8441, 18 h, 35° C., read-out: MIC
How it was run: (§1)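 Minimal inhibitory concentrations came from agar plate dilution in Mueller-Hinton medium. Each organism was delivered at roughly 10^4 CFU by Steers replicator. Plates were read for visible growth after 18 hours at 35° C, values in mcg/ml.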

[2] = system: Serratia marcescens VGH 84-30; details: Serratia marcescens, VGH8430, 18 h, 35° C., read-out: MIC
How it was run: as §1

[3] = system: Enterobacter cloacae MOR 83-30; details: MOR8330, 18 hours, 35° C.
How it was run: as §1

[4] = system: Streptococcus faecalis UCI 85-30; details: Enterococcus faecalis, UCI8530, 18 h, 35° C., read-out: MIC
How it was run: as §1

[5] = system: Morganella morganii VHG 84-12; details: Morganella morganii, VHG8412, 18 h, Morganella morganii VHG 84-12 (VGH 84-12 for Example 131), 35° C., read-out: MIC
How it was run: as §1

[6] = system: Pseudomonas aeruginosa CMC 83-20; details: Pseudomonas aeruginosa, CMC8320, 18 h, 35° C., read-out: MIC
How it was run: as §1

[7] = system: Pseudomonas aeruginosa LL-1244; details: Pseudomonas aeruginosa, LL1244, 18 h, 35° C., read-out: MIC
How it was run: as §1

[8] = system: Klebsiella pneumoniae CMC 84-31; details: Klebsiella pneumoniae, CMC8431, 18 h, 35° C., read-out: MIC
How it was run: as §1

[9] = system: Staphylococcus aureus K 82-26; details: Staphylococcus aureus, K8226, 18 h, 35° C., read-out: MIC
How it was run: as §1

[10] = system: Staphylococcus aureus CMC 83-127; details: Staphylococcus aureus, CMC83127, 18 h, 35° C., read-out: MIC
How it was run: as §1

[11] = system: Streptococcus faecalis ATTC 29212; details: Enterococcus faecalis, ATTC29212, 18 hours, 35° C., read-out: MIC
How it was run: as §1

[12] = system: Escherichia coli CMC 84-16; details: Escherichia coli, CMC8416, 18 h, 35° C., read-out: MIC
How it was run: as §1

[13] = system: Staphylococcus epidermidis CMC 83-135; details: CMC83135, 18 hours, 35° C., read-out: MIC
How it was run: as §1

[14] = system: Serratia marcescens F 0-35; details: Serratia marcescens, F035, 18 h, 35° C., read-out: MIC
How it was run: as §1

[15] = system: Klebsiella pneumoniae AD; details: Klebsiella pneumoniae, 18 h, 35° C., read-out: MIC
How it was run: as §1

[16] = system: Escherichia coli NAR 311; details: NAR311, 18 hours, 35° C., read-out: MIC
How it was run: as §1

[17] = system: Staphylococcus Spp saprophiticus VGH 84-50; details: 18 hours, 35° C., read-out: MIC
How it was run: as §1

[18] = system: Staphylococcus epidermidis IO 83-58; details: IO8358, 18 hours, 35° C., read-out: MIC
How it was run: as §1

[19] = system: Klebsiella oxytoca MOR 84-28; details: MOR8428, 18 hours, 35° C.
How it was run: as §1

[20] = system: Klebsiella pneumoniae MOR 84-4; details: Klebsiella pneumoniae, MOR844, 18 h, 35° C., read-out: MIC
How it was run: as §1

[21] = system: Staphylococcus aureus VGH 84-46; details: Staphylococcus aureus, VGH8446, 18 h, 35° C., read-out: MIC
How it was run: as §1

[22] = system: Acinetobacter calcoaceticus MOR 84-43; details: MOR8443, 18 hours, 35° C., read-out: MIC
How it was run: as §1

[23] = system: Staphylococcus aureus CMC 83-128; details: CMC83128, 18 hours, 35° C., read-out: MIC
How it was run: as §1

[24] = system: Morganella morganii VGH 84-11; details: VGH8411, 18 hours, 35° C., read-out: MIC
How it was run: as §1

[25] = system: Escherichia coli PRNT 311; details: PRNT311, 18 hours, 35° C., read-out: MIC
How it was run: as §1

[26] = system: Enterobacter aerogenes VGH 84-36; details: Klebsiella aerogenes, VGH8436, 18 hours, 35° C., read-out: MIC
How it was run: as §1

[27] = system: Staphylococcus epidermidis VGH 84-40; details: VGH8440, 18 hours, 35° C., read-out: MIC
How it was run: as §1

[28] = system: Enterobacter cloacae VGH 84-37; details: Enterobacter cloacae, VGH8437, 18 h, 35° C., read-out: MIC
How it was run: as §1

| MIC [1] | MIC [2] | MIC [4] | MIC [5] | MIC [6] | MIC [7] | MIC [8] | MIC [9] | Compound | also measured |
| --- | --- | --- | --- | --- | --- | --- | --- | --- | --- |
| 1 µg/mL (≈ 2.52 µM) | 32 µg/mL (≈ 80.5 µM) | 2 µg/mL (≈ 5.03 µM) | 4 µg/mL (≈ 10.1 µM) | 16 µg/mL (≈ 40.3 µM) | 16 µg/mL (≈ 40.3 µM) | 0.25 µg/mL (≈ 0.629 µM) | 1 µg/mL (≈ 2.52 µM) | O=C(O)c1cn(C2CC2)c2cc(N3CCNC(c4cc[nH]n4)C3)c(F)cc2c1=O (stereo not shown) [Example 121, 1-Cyclopropyl-6-fluoro-1,4-dihydro-4-oxo-7-[3-(1H-pyrazol-3-yl)-1-piperazinyl]-3-quinolinecarboxylic acid] |  |
| 0.5 µg/mL (≈ 1.26 µM) |  | 1 µg/mL (≈ 2.52 µM) | 0.5 µg/mL (≈ 1.26 µM) | 8 µg/mL (≈ 20.1 µM) |  | 0.12 µg/mL (≈ 0.302 µM) | 0.06 µg/mL (≈ 0.151 µM) | O=C(O)c1cn(C2CC2)c2cc(N3CCNC(c4ccco4)C3)c(F)cc2c1=O (stereo not shown) [Example 62, 1-Cyclopropyl-6-fluoro-7-[3-(2-furanvl)-1-piperazinyl]-1,4-dihydro-4-oxo-3-quinolinecarboxylic acid] | MIC [10]: 0.008 µg/mL (≈ 0.0201 µM); MIC [11]: 0.25 µg/mL (≈ 0.629 µM); MIC [12]: 0.03 µg/mL (≈ 0.0755 µM); MIC [13]: 0.03 µg/mL (≈ 0.0755 µM); MIC [14]: 0.06 µg/mL (≈ 0.151 µM); MIC [15]: 0.12 µg/mL (≈ 0.302 µM); MIC [16]: 0.5 µg/mL (≈ 1.26 µM); MIC [17]: 0.12 µg/mL (≈ 0.302 µM); MIC [18]: 0.015 µg/mL (≈ 0.0377 µM); MIC [19]: 0.06 µg/mL (≈ 0.151 µM); MIC [20]: 0.12 µg/mL (≈ 0.302 µM); MIC [21]: 0.015 µg/mL (≈ 0.0377 µM); MIC [22]: 0.06 µg/mL (≈ 0.151 µM); MIC [23]: 0.03 µg/mL (≈ 0.0755 µM); MIC [24]: 0.06 µg/mL (≈ 0.151 µM); MIC [25]: 0.06 µg/mL (≈ 0.151 µM); MIC [26]: 0.12 µg/mL (≈ 0.302 µM); MIC [27]: 0.03 µg/mL (≈ 0.0755 µM); MIC [28]: 0.03 µg/mL (≈ 0.0755 µM) |
| 0.06 µg/mL (≈ 0.157 µM) | 2 µg/mL (≈ 5.24 µM) | 2 µg/mL (≈ 5.24 µM) | 0.06 µg/mL (≈ 0.157 µM) | 4 µg/mL (≈ 10.5 µM) | 4 µg/mL (≈ 10.5 µM) | 0.015 µg/mL (≈ 0.0393 µM) | 1 µg/mL (≈ 2.62 µM) | CN1CCN(c2c(F)c(F)c3c(=O)c(C(=O)O)cn(C4CC4)c3c2F)CC1 [Example 111, 1Cyclopropyl-5,6,8-trifluoro-1,4-dihydro-7-(4-methyl-1-piperazinyl) -4-oxo-3-quinolinecarboxylic acid] |  |
| > 16 µg/mL | > 128 µg/mL | > 16 µg/mL | > 16 µg/mL | > 16 µg/mL | 128 µg/mL (≈ 310 µM) | 8 µg/mL (≈ 19.3 µM) | 16 µg/mL (≈ 38.7 µM) | CCn1cc(C(=O)O)c(=O)c2cc(F)c(N3CCN(C)C(c4ccnn4C)C3)cc21 (stereo not shown) [Example 110, 1-Ethyl-6-fluoro-1,4-dihydro-7-[4-methyl-3-(1-methyl-1H-pyrazol-5-yl) -1-piperazinyl]-4-oxo-3-quinolinecarboxylic acid] |  |
| 1 µg/mL (≈ 2.59 µM) | 8 µg/mL (≈ 20.8 µM) | 8 µg/mL (≈ 20.8 µM) | 1 µg/mL (≈ 2.59 µM) | 16 µg/mL (≈ 41.5 µM) | 16 µg/mL (≈ 41.5 µM) | 0.25 µg/mL (≈ 0.649 µM) | 4 µg/mL (≈ 10.4 µM) | CN1CCN(c2cc3c(cc2F)c(=O)c(C(=O)O)cn3C2CC2)CC1C1CC1 (stereo not shown) [Example 125, 1-Cyclopropyl-7-(3-cyclopropyl-4-methyl-1-piperazinyl) -6-fluoro-1,4-dihydro-4-oxo-3-quinolinecarboxylic acid] |  |
| 4 µg/mL (≈ 10.1 µM) | 32 µg/mL (≈ 80.7 µM) | 8 µg/mL (≈ 20.2 µM) | 8 µg/mL (≈ 20.2 µM) | > 16 µg/mL | 32 µg/mL (≈ 80.7 µM) | 4 µg/mL (≈ 10.1 µM) | 1 µg/mL (≈ 2.52 µM) | CCn1cc(C(=O)O)c(=O)c2cc(F)c(N3CCNC(c4cccnc4)C3)cc21 (stereo not shown) [Example 122] |  |
| 0.25 µg/mL (≈ 0.629 µM) | 4 µg/mL (≈ 10.1 µM) | 1 µg/mL (≈ 2.52 µM) | 0.25 µg/mL (≈ 0.629 µM) | 4 µg/mL (≈ 10.1 µM) | 2 µg/mL (≈ 5.03 µM) | 0.12 µg/mL (≈ 0.302 µM) | 0.12 µg/mL (≈ 0.302 µM) | O=C(O)c1cn(C2CC2)c2cc(N3CCNC(c4ccoc4)C3)c(F)cc2c1=O (stereo not shown) [Example 92] |  |
| > 16 µg/mL | > 128 µg/mL | > 16 µg/mL | > 16 µg/mL | > 16 µg/mL | > 128 µg/mL | > 16 µg/mL | > 16 µg/mL | CCn1cc(C(=O)O)c(=O)c2cc(F)c(N3CCN(C)C(c4ccn(C)n4)C3)cc21 (stereo not shown) [Example 109, 1-Ethyl-6-fluoro-1,4-dihydro-7-[4-methyl-3-(1-methyl-1H-pyrazol-3-yl) -1-piperazinyl]-4-oxo-3-quinolinecarboxylic acid] |  |
| 8 µg/mL (≈ 20.2 µM) | 64 µg/mL (≈ 161 µM) | > 16 µg/mL | 8 µg/mL (≈ 20.2 µM) | > 16 µg/mL | 64 µg/mL (≈ 161 µM) | 4 µg/mL (≈ 10.1 µM) | 16 µg/mL (≈ 40.4 µM) | CCn1cc(C(=O)O)c(=O)c2cc(F)c(N3CCNC(c4ccncc4)C3)cc21 (stereo not shown) [Example 123] |  |
| 0.5 µg/mL (≈ 1.3 µM) | 8 µg/mL (≈ 20.8 µM) | 4 µg/mL (≈ 10.4 µM) | 1 µg/mL (≈ 2.59 µM) | 8 µg/mL (≈ 20.8 µM) | 8 µg/mL (≈ 20.8 µM) | 0.5 µg/mL (≈ 1.3 µM) | 0.25 µg/mL (≈ 0.649 µM) | CCn1cc(C(=O)O)c(=O)c2cc(F)c(N3CCNC(c4ccoc4)C3)cc21 (stereo not shown) [Example 94, 1-Ethyl-6-fluoro-1,4-dihydro-4-oxo-7-[3-(3-furanyl)-1-piperazinyl]-3-quinolinecarboxylic acid] |  |

| Compound | MIC [1] | MIC [2] | MIC [4] | MIC [5] | MIC [6] | MIC [7] | MIC [8] | MIC [9] | also measured |
| --- | --- | --- | --- | --- | --- | --- | --- | --- | --- |
| O=C(O)c1cn(C2CC2)c2cc(N3CCNC(CF)C3)c(F)cc2c1=O (stereo not shown) [Example 131, 1-Cyclopropyl-6-fluoro-7-[3-(fluoromethyl)-1-piperazinyl]-1,4-dihydro-4-oxo-3-quinolinecarboxylic acid] | 0.12 µg/mL (≈ 0.33 µM) | 2 µg/mL (≈ 5.5 µM) | 2 µg/mL (≈ 5.5 µM) | 0.12 µg/mL (≈ 0.33 µM) | 1 µg/mL (≈ 2.75 µM) | 2 µg/mL (≈ 5.5 µM) | 0.06 µg/mL (≈ 0.165 µM) | 0.5 µg/mL (≈ 1.38 µM) | MIC [3]: 0.12 µg/mL (≈ 0.33 µM) |
